Measurements as given in patent US12485110B2, “Use of ergothioneine for extending lifespan or improving healthspan” (NANJING NUTRABUILDING BIO-TECH CO., LTD., priority 2022, dated 2025).

System: C. elegans
Assay: Differential gene expression by mRNA sequencing (RNA-Seq)
Type: in vivo
Conditions: for Number of genes differentially expressed above threshold: 5 mM vs control
Protocol: More than 150 day-1 adult worms per replicate were harvested, cleaned by filtration, and frozen at −80° C. in Trizol. To extract RNA, samples were thawed, vigorously vortexed, and processed using the Direct-zol RNA Miniprep Kit (Zymo Research). All samples exceeded our threshold for RNA quantity and quality.
RNA samples were submitted to Novogene Co. Ltd and subjected to more stringent QC, being tested on a Qubit for concentration and run on an agarose gel and on the Agilent 2100 to assess RNA quality and integrity.
The total RNA is then enriched for poly-mRNA using oligo(dT) paramagnetic beads. DNA libraries were then constructed from this input mRNA using the NEB Next Ultra™ II RNA Library Prep Kit. This creates a ready-to-sequence dsDNA library that retains the strand-specific information in the original mRNA. These libraries were then further tested by the Qubit for concentration and the Agilent 2100 for library size distribution and quality. In order to properly pool the libraries and load them onto sequencing lanes to ensure the correct number of reads per sample, an even more precise quantification of the library was done via qPCR, and the samples were loaded onto the NovaSeq 6000 platform for a paired-end sequencing run of 150 bp for each end (PE150). The loading concentrations were designed to obtain at least 6.0 Gb (which is the number of billion bases of raw data, determined by the number of reads multiplied by the length of each read).
Sequencing run data quality control was performed both by Novogene and again by inventors of this application. The raw data set was analyzed for: • 1. The distribution of base quality along the length of the sequencing read; • 2. The distribution of error rate along the length of the sequencing read; • 3. The distribution of A/T/G/C bases along the length of the sequencing read; • 4. The distribution of raw data filtering results based on the following three criteria: • a. Removing reads containing adapter sequence, • b. Remove reads with N>10% (where N means “base cannot be determined”), • c. Remove reads with a low quality (Qscore<=5) for 50% or more of its total bases.
To identify potential mechanisms of action through which Ergothioneine could affect aging, global gene expression was analyzed by mRNA sequencing (RNA-Seq). Both young (adult day 3) and aged (adult day 10) worms were collected from the same population of worms tested in the lifespan assay.
Differential gene expression was performed with EdgeR using […] likelihood ratio tests based on fitting linear models. The likelihood ratios were used to determine the p-values which were subsequently corrected for using the BH false discovery rate (fdr) method. Ultimately, differentially expressed genes (DEG) were defined as genes with an fdr-corrected p-value of 0.05 or lower, as well as a change in expression of at least 2-fold in a given between-group comparison. In this study, the comparison groups in Table 5 were used:
Reading Volcano Plots (log 2 fold change, Log FC): Positive values mean that the gene is more expressed in Treatment, and negative values mean the gene is more expressed in Control. The farther the dot is from the origin point on the x-axis, the greater the expression fold-change. Genes represented in green show a larger than 2-fold change in expression but are not deemed statistically significant due to replicate variability or low read count. Genes represented by red dots show greater than 2-fold change and expression that is statistically significant. The higher on the y-axis, the greater the calculated level of significance.

[1] = 5 mM vs vehicle control, Day 10, log 2 fold change
[2] = 5 mM vs. vehicle control, Day 3, log 2 fold change

C[N+](C)(C)[C@@H](Cc1c[nH]c(=S)[nH]1)C(=O)[O-] [Ergo, Ergothioneine]
Number of genes differentially expressed above threshold (Day 3, cpr-1, mtl-1, argk-1, fdr P 0.05 or lower and at least 2-fold): 3
Number of genes differentially expressed above threshold (Day 10, F55G11.4): 1
log FC, gene C30G12.2 [1]: 0.55
log FC, gene F55G11.4 [1]: −1.09
log FC, gene K07C11.7 [1]: −0.43
log FC, gene TO5E12.6 [1]: 0.62
log FC, gene Y39B6A. 1 [1]: −0.38
log FC, gene Y94H6A.10 [1]: 0.43
log FC, gene clec-150 [1]: −0.45
log FC, gene col-19 [1]: −0.47
log FC, gene dod-6 [1]: 0.69
log FC, gene dod-24 [1]: −0.49
log FC, gene folt-2 [1]: −0.49
log FC, gene pmp-5 [1]: −0.64
log FC, gene pmt-2 [1]: −0.38
log FC, gene smd-1 [1]: 0.26
log FC, gene thn-2 [1]: 0.31
Log FC, gene C14C6.5 [2]: −0.59
Log FC, gene F16B4.4 [2]: 0.66
Log FC, gene F28B4.3 [2]: −0.48
Log FC, gene F53A9.8 [2]: −0.73
Log FC, gene F57F4.4 [2]: −0.43
Log FC, gene Y39B6A. 1 [2]: −0.95
Log FC, gene argk-1 [2]: 1.14
Log FC, gene col-95 [2]: −0.56
Log FC, gene col-124 [2]: 1.76
Log FC, gene cpr-1 [2]: −2.10
Log FC, gene ctsa-1.2 [2]: −0.48
Log FC, gene ctsa-2 [2]: 0.50
Log FC, gene folt-2 [2]: −0.54
Log FC, gene hacd-1 [2]: −1.06
Log FC, gene ilys-5 [2]: −0.57
Log FC, gene irg-5 [2]: 1.39
Log FC, gene lys-7 [2]: −0.70
Log FC, gene mtl-1 [2]: −1.63
Log FC, gene smd-1 [2]: −0.35
Log FC, gene vit-4 [2]: −0.64
